Test results reported in ChEMBL document CHEMBL5247656, “Discovery of a Potent, Cooperative, and Selective SOS1 PROTAC ZZ151 with In Vivo Antitumor Efficacy in KRAS-Mutant Cancers” (J Med Chem, 2023).
The source made the active and inactive calls. No cut-off for these calls is given here.

Columns and labels:
[1] = target: T1, von Hippel-Lindau disease tumor suppressor/Son of sevenless homolog 1 (Homo sapiens) (UniProt Q07889+P40337); assay: PROTAC activity at VHL/SOS1 in human ASPC1 cells harboring KRAS G12D mutant assessed as induction of SOS1 degradation at 1 uM preincubated with MG132 for 4 hrs followed by compound treatment and measured after 24 hrs by immunoblot analysis; format: cell-based
[2] = target: T1, von Hippel-Lindau disease tumor suppressor/Son of sevenless homolog 1 (Homo sapiens); assay: PROTAC activity at VHL/SOS1 in human Calu-1 cells harboring KRAS G12C mutant assessed as induction of SOS1 degradation by measuring maximal efficacy at 1 to 2000 nM incubated for 24 hrs by Immunoblot analysis relative to control; format: cell-based; conditions: dose 1-2000 nM
[3] = target: T1, von Hippel-Lindau disease tumor suppressor/Son of sevenless homolog 1 (Homo sapiens); assay: PROTAC activity at VHL/SOS1 in human SW480 cells harboring KRAS G12V mutant assessed as induction of SOS1 degradation by measuring maximal efficacy at 1 to 2000 nM incubated for 24 hrs by Immunoblot analysis relative to control; format: cell-based; conditions: dose 1-2000 nM
MIA PaCa-2 = assay: Antiproliferative activity against human MIA PaCa-2 cells harboring KRAS G12C mutant assessed as inhibition of cell proliferation incubated for 7 days by CellTiterGlo-3D proliferation assay; format: functional, cell-based; conditions: MIA PaCa-2, 168 h
NCI-H358 = assay: Antiproliferative activity against human NCI-H358 cells harboring KRAS G12C mutant assessed as inhibition of cell proliferation incubated for 7 days by CellTiterGlo-3D proliferation assay; format: functional, cell-based; conditions: NCI-H358, 168 h

T1 sequence (P40337 whole entry, looked up): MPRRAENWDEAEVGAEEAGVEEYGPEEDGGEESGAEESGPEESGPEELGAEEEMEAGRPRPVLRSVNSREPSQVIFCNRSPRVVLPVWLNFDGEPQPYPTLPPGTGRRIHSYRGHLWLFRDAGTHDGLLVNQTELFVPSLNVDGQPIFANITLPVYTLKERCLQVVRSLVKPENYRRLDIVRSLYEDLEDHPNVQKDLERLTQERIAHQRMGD
T1 sequence (Q07889 whole entry, looked up): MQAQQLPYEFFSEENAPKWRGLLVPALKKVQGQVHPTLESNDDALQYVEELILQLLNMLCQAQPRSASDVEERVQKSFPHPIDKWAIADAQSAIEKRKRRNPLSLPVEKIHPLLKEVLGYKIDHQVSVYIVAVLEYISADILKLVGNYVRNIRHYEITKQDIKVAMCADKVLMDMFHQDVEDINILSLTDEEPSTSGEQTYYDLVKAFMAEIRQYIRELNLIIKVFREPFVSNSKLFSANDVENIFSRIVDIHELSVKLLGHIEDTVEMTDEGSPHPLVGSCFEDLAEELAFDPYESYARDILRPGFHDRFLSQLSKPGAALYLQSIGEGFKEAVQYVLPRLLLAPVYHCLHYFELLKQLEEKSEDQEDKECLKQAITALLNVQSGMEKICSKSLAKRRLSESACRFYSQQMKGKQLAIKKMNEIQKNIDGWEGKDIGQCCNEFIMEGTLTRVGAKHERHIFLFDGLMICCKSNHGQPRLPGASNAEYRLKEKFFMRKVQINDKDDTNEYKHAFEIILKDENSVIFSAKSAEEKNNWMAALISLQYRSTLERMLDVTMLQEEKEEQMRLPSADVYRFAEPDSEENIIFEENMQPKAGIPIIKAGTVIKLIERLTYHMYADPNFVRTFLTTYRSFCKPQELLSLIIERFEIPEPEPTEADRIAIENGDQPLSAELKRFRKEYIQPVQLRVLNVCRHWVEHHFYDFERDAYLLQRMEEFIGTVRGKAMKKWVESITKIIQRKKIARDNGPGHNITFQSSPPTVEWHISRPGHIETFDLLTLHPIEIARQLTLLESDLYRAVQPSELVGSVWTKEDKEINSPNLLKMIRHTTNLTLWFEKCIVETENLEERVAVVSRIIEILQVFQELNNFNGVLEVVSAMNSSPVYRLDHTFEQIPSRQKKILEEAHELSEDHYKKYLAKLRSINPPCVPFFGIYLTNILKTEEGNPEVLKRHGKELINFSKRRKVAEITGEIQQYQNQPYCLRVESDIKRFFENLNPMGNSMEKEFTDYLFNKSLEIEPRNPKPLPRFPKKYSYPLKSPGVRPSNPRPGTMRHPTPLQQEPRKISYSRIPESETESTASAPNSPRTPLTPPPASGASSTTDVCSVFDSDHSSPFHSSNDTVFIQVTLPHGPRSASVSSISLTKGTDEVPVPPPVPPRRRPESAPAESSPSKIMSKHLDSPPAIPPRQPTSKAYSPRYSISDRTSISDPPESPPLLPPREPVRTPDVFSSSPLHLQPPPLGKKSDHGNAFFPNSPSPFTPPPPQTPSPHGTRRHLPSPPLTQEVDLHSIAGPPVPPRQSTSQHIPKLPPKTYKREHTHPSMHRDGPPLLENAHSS

COc1cc2nc(C)nc(N[C@H](C)c3cc(N)cc(C(F)(F)F)c3)c2cc1C1CCN(C(=O)CCCCCC(=O)N[C@H](C(=O)N2C[C@H](O)C[C@H]2C(=O)N[C@@H](C)c2ccc(-c3scnc3C)cc2)C(C)(C)C)CC1
Activity [1]: inactive
Emax [2]: > 95%
Emax [3]: > 95%
IC50 (MIA PaCa-2): 10.1 nM
IC50 (NCI-H358): 12.9 nM
